Results published in article PMC11124870, “Effect of Antioxidants in Medicinal Products on Intestinal Drug Transporters” (Pharmaceutics, 2024).

Tests used:
[1] = biological target: T1, P-gp (Homo sapiens, UniProt P08183); assay: Vesicular transport assay, 3H-NMQ uptake in P-gp membrane vesicles; format: biochemical
T1 construct: purchased ThermoFisher Scientific GM0015; host or cells: Sf9 membrane vesicles
Description: (§1) The vesicular transport assay was performed using Spodoptera frugiperda 9 (Sf9) membrane vesicles overexpressing human P-gp or BCRP, as reported previously with minor modifications. In brief, Isoplate 96-well flat-bottom white plates were preincubated with HBSS containing 0.5 mg/mL BSA on an orbital shaker in a 37 °C incubator at 90 rpm for 60 min followed by washing with HBSS. The assay mixture (75 µL/well) contained a probe substrate and either vehicle control, a known inhibitor of P-gp or BCRP, or an antioxidant, in vesicle uptake buffer (50 mM MOPS-Tris, pH 7.0 + 70 mM KCl + 7.5 mM MgCl2) prewarmed to 37 °C. After addition of the assay mixture, 5 μL/well (5 μg/μL stock concentration of the vesicles) of vesicles overexpressing human P-gp or BCRP was added. Uptake assays were initiated by adding 20 μL of either 25 mM adenosine triphosphate (ATP) or 25 mM adenosine monophosphate (AMP) to a final concentration of 5 mM. Plates were incubated at 37 °C for 20 min with orbital shaking (90 rpm). After 20 min, the uptake was quenched by adding 150 μL of ice-cold wash buffer (40 mM MOPS-Tris, pH 7.0 + 70 mM KCl) to each well, and the mixture was transferred to a 96-well filtration plate. Vacuum was applied, and the vesicles were washed three times with wash buffer. Vesicles were then lysed with 100 µL of MicroScint-20.

[2] = Estimation of intestinal luminal concentration (Igut), dose/250 mL; conditions: estimated from maximum oral amount (AP 10 mg, BHA 8 mg) in 250 mL intestinal fluid
Description: Igut is intestinal luminal concentration estimated as dose/250 mL. The Igut concentration was estimated using the following equation: Igut=A÷MW×V×10^6 where Igut is the estimated intestinal luminal concentration (µM), A is the amount of antioxidant in an oral dosage (mg), MW is the molecular weight, and V is the volume of intestinal fluid, i.e., 250 mL.

[3] = system: MDCK cell tight junctions; assay: Lucifer yellow permeability assay of MDCK monolayer integrity; format: cell-based; conditions: BHA 250 µM
Description: The transport assay was performed using MDCK-hMDR1-cMDR1-KO, MDCK-cMDR1-KO, and MDCK-hBCRP-cMDR1-KO as reported previously with minor modifications [14, 27]. In brief, 133,000 cells were seeded onto a Transwell membrane insert, a semipermeable polyethylene terephthalate membrane. During the differentiation process, the medium volume in the apical chamber was kept at 300 μL, while the basal chamber contained 1000 μL. The cells were allowed to differentiate for 7–9 days at 37 °C in a humidified incubator with 5% CO2. Before starting transporter assays, the integrity of the cell monolayer was checked using lucifer yellow permeability assays. Cells were washed twice with HBSS, lucifer yellow (0.1 mg/mL) in HBSS was added to the apical chamber, and the basal chamber was filled with fresh HBSS. The assembled plate was then incubated at 37 °C for 1 h. From the basal chamber, 100 μL samples were collected for fluorescence measurements using GloMax® Explorer with a 475 nm excitation filter and a 500–550 nm emission filter to calculate the percent permeability per well.
At the end of the transport assay, a lucifer yellow permeability assay was performed as described earlier.

[4] = Table S1; source not stated; cited from earlier work
[5] = biological target: T2, BCRP (Homo sapiens, UniProt Q9UNQ0); assay: Vesicular transport assay, 3H-CCK8 uptake in BCRP membrane vesicles; format: biochemical; parameters: purchased ThermoFisher Scientific GM0008; host or cells: Sf9 membrane vesicles
T2 sequence (Q9UNQ0 1-655): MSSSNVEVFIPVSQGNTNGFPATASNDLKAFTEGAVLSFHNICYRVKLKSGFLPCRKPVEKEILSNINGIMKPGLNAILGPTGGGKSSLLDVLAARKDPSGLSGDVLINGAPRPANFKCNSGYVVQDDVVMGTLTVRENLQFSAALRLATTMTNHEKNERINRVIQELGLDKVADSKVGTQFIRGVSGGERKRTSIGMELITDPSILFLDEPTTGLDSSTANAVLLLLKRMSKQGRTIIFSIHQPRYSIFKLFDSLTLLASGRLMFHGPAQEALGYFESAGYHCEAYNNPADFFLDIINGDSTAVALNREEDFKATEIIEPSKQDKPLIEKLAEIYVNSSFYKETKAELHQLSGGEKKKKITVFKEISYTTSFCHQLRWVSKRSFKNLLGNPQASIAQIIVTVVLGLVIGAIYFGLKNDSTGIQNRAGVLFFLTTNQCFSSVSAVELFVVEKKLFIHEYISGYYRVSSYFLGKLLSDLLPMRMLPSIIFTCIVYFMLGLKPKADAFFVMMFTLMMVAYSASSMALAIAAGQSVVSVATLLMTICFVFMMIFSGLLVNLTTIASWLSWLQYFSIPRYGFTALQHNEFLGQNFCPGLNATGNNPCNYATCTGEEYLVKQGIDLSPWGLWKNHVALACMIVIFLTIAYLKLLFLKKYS
Description: as §1

[6] = antioxidant 200 µM, uptake with DMSO set as 100%, mean ± SD, three replicates, membrane vesicles

T1 sequence (P08183 whole entry): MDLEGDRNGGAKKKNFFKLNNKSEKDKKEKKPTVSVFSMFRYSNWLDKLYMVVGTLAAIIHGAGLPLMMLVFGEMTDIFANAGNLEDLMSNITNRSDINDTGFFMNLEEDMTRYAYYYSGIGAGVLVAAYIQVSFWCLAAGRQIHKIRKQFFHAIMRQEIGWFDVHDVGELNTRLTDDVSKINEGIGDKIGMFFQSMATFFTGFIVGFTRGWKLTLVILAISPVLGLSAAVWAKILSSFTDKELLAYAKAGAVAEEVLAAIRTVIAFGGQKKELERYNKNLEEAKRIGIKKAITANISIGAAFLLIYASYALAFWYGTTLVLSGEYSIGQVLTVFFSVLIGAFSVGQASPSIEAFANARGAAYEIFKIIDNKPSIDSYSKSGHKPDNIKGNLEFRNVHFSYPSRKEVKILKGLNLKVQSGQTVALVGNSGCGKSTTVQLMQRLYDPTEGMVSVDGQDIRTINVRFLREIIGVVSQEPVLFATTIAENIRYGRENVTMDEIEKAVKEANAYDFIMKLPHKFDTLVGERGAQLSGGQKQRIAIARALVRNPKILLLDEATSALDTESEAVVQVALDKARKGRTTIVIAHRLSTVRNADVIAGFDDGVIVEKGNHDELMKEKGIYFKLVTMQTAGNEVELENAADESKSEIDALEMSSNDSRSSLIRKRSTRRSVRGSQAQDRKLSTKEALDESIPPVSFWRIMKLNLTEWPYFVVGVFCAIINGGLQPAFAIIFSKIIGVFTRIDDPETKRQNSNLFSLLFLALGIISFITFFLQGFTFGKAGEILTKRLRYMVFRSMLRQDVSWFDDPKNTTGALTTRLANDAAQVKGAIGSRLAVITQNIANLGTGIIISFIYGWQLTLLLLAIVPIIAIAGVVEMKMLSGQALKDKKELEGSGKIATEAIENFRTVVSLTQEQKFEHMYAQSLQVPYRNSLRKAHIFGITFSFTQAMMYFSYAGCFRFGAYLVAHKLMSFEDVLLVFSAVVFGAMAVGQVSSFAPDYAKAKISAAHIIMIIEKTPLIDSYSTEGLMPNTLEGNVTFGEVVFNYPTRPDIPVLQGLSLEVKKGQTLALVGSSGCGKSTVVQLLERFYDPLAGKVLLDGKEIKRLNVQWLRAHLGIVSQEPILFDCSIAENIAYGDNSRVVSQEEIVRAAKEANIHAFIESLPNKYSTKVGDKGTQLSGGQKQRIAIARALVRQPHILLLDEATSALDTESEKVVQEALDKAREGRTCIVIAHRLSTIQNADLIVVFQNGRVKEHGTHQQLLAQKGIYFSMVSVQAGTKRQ

Question: For `COc1ccc(O)cc1C(C)(C)C` [Butylated hydroxyanisole (BHA), 2-tert-Butyl-4-hydroxyanisole], which “Inhibition of P-gp” value ([1]; 200 µM, 3H-NMQ) is on record?
Answer: at least 50%

Question: What about the “% Uptake of 3H-NMQ P-gp” value [1, 6] of the same molecule?
Answer: 42.1 ± 5.7%

Question: What about the IC50 ([1]; substrate 3H-NMQ, mean ± SD of three independent experiments) of the same molecule?
Answer: 182 ± 49 µM

Question: And the “Max Intestinal Conc (µM) in 250 mL Fluid” value [2]?
Answer: 178 µM

Question: What about the “Effect on MDCK cell tight junctions (lucifer yellow permeability)” value [3] of the same molecule?
Answer: disrupted MDCK cell tight junctions

Question: And the LogP [4]?
Answer: 3.2

Question: What about the “Inhibition of BCRP” value ([5]; 200 µM, 3H-CCK8) of the same molecule?
Answer: at least 50%

Question: And the “% Uptake of 3H-CCK8 BCRP” value [5, 6]?
Answer: 46.7 ± 5.5%

Question: And the IC50 ([5]; substrate 3H-CCK8, mean ± SD of three independent experiments)?
Answer: 206 ± 14 µM
